Laboratory results as given in PubChem BioAssay (NCI).
“And” between values parts separate entries of the source, which are not always exact repeats. Equal entries are not always repeated.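 Where inhibition never reached the appropriate level, the endpoint shown equals the highest concentration tested. Otherwise, values were interpolated linearly from a five-concentration, 48-hour dose response in 96-well plates. GI50: concentration for 50% inhibition of growth. At the TGI there is no net growth.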

Each compound was assayed on 786-0 renal (assay: DTP human tumour cell line panel, 48 h).

Row | SMILES | GI50 | TGI [µM]
1 | Nc1n[nH]c2cccc(C#Cc3cccc(C(=O)Nc4ccc(CN5CCOCC5)c(C(F)(F)F)c4)c3)c12 | 2.79 µM | 7.74
2 | COc1ccc(-c2cn[nH]c2-c2cc(OC)c(OC)c(OC)c2)cc1 | 0.0656 µM | 7.76
3 | CCC(=C/[C@H](C)C/C=C/C(C)=C/[C@@H](C)C(=O)[C@@H](C)[C@H](O)[C@@H](C)CC)/C=C/[C@H]1OC(=O)C=C[C@@H]1C | < 0.01 µM | < 0.0219
4 | Nc1ccccc1SC(CC(=O)c1ccccc1)c1cccc([N+](=O)[O-])c1 (centres undefined) | 18.9 µM | 33.3
5 | O=C1CCCCN1c1ccccc1C#C/C=C\C#Cc1ccccc1C(F)(F)F | 1.61 µM | 7.26
6 | CN1CC[C@@H](NC(=O)Nc2ccc(C#N)cc2)C[C@@H]1c1nc2ccccc2[nH]1 | > 100 µM | > 100
7 | COc1ccc2nc(NC(=O)CSc3nnc4n3S(=O)(=O)c3ccccc3N4c3ccccc3)sc2c1 | 12.4 µM | 93.1
8 | Cc1ccc(-n2c3nc(=O)[nH]c(=O)c-3cc3cc([N+](=O)[O-])ccc32)cc1 | 10.3 µM | 29.5
9 | O=C1NC(=NC(CO)Cc2ccccc2)S/C1=C\c1ccc2ncccc2c1 (centres undefined) | > 25 µM and 6.96 µM | > 25
10 | COc1cc(/C(C#N)=C/c2nc3c(N4CCOCC4)nc(Cl)nc3n2C)cc(OC)c1OC | < 0.01 µM | 3.12
11 | Cc1nnc(NC(=O)c2nc(S(=O)(=O)Cc3ccc(F)cc3)ncc2Cl)s1 | 4.32 µM | 15.5
12 | Nc1c(C(=O)Nc2cccc(C(F)(F)F)c2)sc2nc3c(cc12)CCCCC3 | 1.58 µM | 3.13
13 | Cn1ccc2c3c(Oc4ccc(NC(N)=O)cc4)ccnc3ccc21 | > 100 µM | > 100
14 | CCCOc1cc2ccccc2cc1C(=O)Nc1nc(N)c2c(ccc3nccc32)[nH]1 | 0.0509 µM | 1.56
15 | CC1(C)OC1COc1c2occc2cc2ccc(=O)oc12 (centres undefined) | – | > 100
16 | CCCCCCCCCCCCC(O)c1ccc(C#CCCCCCCCCCO)o1 (centres undefined) | 18.9 µM | 34.4
17 | COc1ccc(CCN=C2NC(=O)/C(=C/c3ccc4ncccc4c3)S2)cc1 | > 25 µM | > 25

The compounds below were run on TK-10 renal (assay: DTP human tumour cell line panel, 48 h).

Row | SMILES | TGI | GI50
18 | CC(=O)CC(OC(C)=O)C1=CCC2C(CC1C)OC(=O)C2C (centres undefined) | > 100 µM | –
19 | O=C(/C(=C/c1ccc([N+](=O)[O-])cc1)SCc1ccccc1)c1ccc(Cl)cc1 | 18.1 µM | 5.11 µM
20 | C[C@]12CCC3c4ccc(O)cc4CCC3C1CC[C@@]2(O)CNC(=O)/C=C/c1ccc(O)c(O)c1 (some centres undefined) | 13.7 µM | 2.52 µM
21 | O=C(O)c1ccc2c(c1C(=O)O)C(=O)OC2(c1ccc(O)cc1)c1ccc(O)cc1 | > 100 µM | –
22 | CCN(Cc1ccc(F)cc1)c1cc(Cl)c(CO)c(Cl)c1 | 13.8 µM | 2.58 µM
23 | COc1ccc(/C=N/NC(=O)c2cccc3cc[nH]c23)cc1O | > 100 µM | 14.4 µM
24 | N#Cc1c[nH]n2c(N=Nc3ccc(Cl)cc3)c(O)nc12 | 68.3 µM | 21.3 µM
25 | CN(C)c1cc(NN=C(c2ccc(O)cc2)c2ccc(O)cc2)c([N+](=O)[O-])cc1[N+](=O)[O-] | 22 µM | 7.35 µM
26 | CC1(COc2ccc3c(c2)ncn3-c2ccc3cccc(N4CCC(N)CC4)c3n2)COC1 | 6.73 µM and > 10 µM | 1.97 µM and 2.56 µM
27 | O=S(=O)(c1ccccc1)N1CCN(S(=O)(=O)c2ccccc2)c2ccccc21 | > 100 µM | –
28 | COc1cc(-c2ccc3cc(OC)c(OC)c(OC)c3c2)cc(OC)c1OC | 84.3 µM | 27.9 µM
29 | CCOC(=O)C1=C(C)N(c2ccc(F)cc2F)[C@]2(C#N)C(O)=C(Cl)C(Cl)=C(O)[C@]12C#N | > 100 µM | > 100 µM
30 | Cc1csc(-c2nnc(Nc3ccc(Oc4ncccc4-c4ccnc(N)n4)cc3)c3ccccc23)c1 | > 100 µM | > 100 µM
31 | COc1cc(C2CC(C)(O)Oc3cc4c(cc32)OCO4)cc(OC)c1OC (centres undefined) | > 100 µM | –
32 | CCCCCCCCCCn1cc[n+](C)c1 | 9.58 µM | 1.24 µM
33 | O=C(CCCSc1nc(-c2ccccc2)cc(-c2ccccc2)n1)NO | 19.1 µM | 0.669 µM
34 | CC1SC(c2ccc(F)cc2)N(NC(=O)C(O)c2ccccc2)C1=O (centres undefined) | > 100 µM | > 100 µM

Row | SMILES | TGI | GI50
35 | O=C(Oc1ccc(Cl)cc1)c1ccccc1Nc1ccnc(C(F)(F)F)c1 | 48.9 µM | 17.9 µM
36 | COCCOc1ccc(-c2nc3ccc(-c4nc5ccc(N6CCN(C)CC6)cc5[nH]4)cc3[nH]2)cc1 | 40.2 µM | 4.74 µM
37 | Nc1n[nH]c2cccc(C#Cc3cccc(C(=O)Nc4ccc(CN5CCOCC5)c(C(F)(F)F)c4)c3)c12 | 12.9 µM | 4.22 µM
38 | CCC(=C/[C@H](C)C/C=C/C(C)=C/[C@@H](C)C(=O)[C@@H](C)[C@H](O)[C@@H](C)CC)/C=C/[C@H]1OC(=O)C=C[C@@H]1C | 1.03 µM | < 0.01 µM
39 | Nc1ccccc1SC(CC(=O)c1ccccc1)c1cccc([N+](=O)[O-])c1 (centres undefined) | 35.1 µM | 20.7 µM
40 | O=C1CCCCN1c1ccccc1C#C/C=C\C#Cc1ccccc1C(F)(F)F | 30.8 µM | 3.35 µM
41 | CN1CC[C@@H](NC(=O)Nc2ccc(C#N)cc2)C[C@@H]1c1nc2ccccc2[nH]1 | > 100 µM | > 100 µM
42 | COc1ccc2nc(NC(=O)CSc3nnc4n3S(=O)(=O)c3ccccc3N4c3ccccc3)sc2c1 | > 100 µM | > 100 µM
43 | Cc1ccc(-n2c3nc(=O)[nH]c(=O)c-3cc3cc([N+](=O)[O-])ccc32)cc1 | 64.5 µM | 29.3 µM
44 | O=C1NC(=NC(CO)Cc2ccccc2)S/C1=C\c1ccc2ncccc2c1 (centres undefined) | > 25 µM | > 23.7 µM and 3.55 µM
45 | COc1cc(/C(C#N)=C/c2nc3c(N4CCOCC4)nc(Cl)nc3n2C)cc(OC)c1OC | 17.8 µM | 2.91 µM
46 | Nc1c(C(=O)Nc2cccc(C(F)(F)F)c2)sc2nc3c(cc12)CCCCC3 | 4.47 µM | 1.83 µM
47 | Cn1ccc2c3c(Oc4ccc(NC(N)=O)cc4)ccnc3ccc21 | > 100 µM | > 100 µM
48 | CCCOc1cc2ccccc2cc1C(=O)Nc1nc(N)c2c(ccc3nccc32)[nH]1 | 2.06 µM | 0.458 µM
49 | CCCCCCCCCCCCC(O)c1ccc(C#CCCCCCCCCCO)o1 (centres undefined) | 30.5 µM | 15.7 µM
50 | COc1ccc(CCN=C2NC(=O)/C(=C/c3ccc4ncccc4c3)S2)cc1 | > 25 µM | > 25 µM

Each compound was assayed on HL-60(TB) leukemia (assay: DTP human tumour cell line panel, 48 h).

Row | SMILES | TGI [µM] | GI50 [µM]
51 | CC(=O)CC(OC(C)=O)C1=CCC2C(CC1C)OC(=O)C2C (centres undefined) | > 100 | –
52 | O=C(/C(=C/c1ccc([N+](=O)[O-])cc1)SCc1ccccc1)c1ccc(Cl)cc1 | 13.6 | 3.21
53 | CCCCCCCCCCCCCCCC[N+](C)(C)Cc1ccccc1 | 2.45 | 0.859
54 | C[C@]12CCC3c4ccc(O)cc4CCC3C1CC[C@@]2(O)CNC(=O)/C=C/c1ccc(O)c(O)c1 (some centres undefined) | 20.1 | 3.99
55 | O=C(O)c1ccc2c(c1C(=O)O)C(=O)OC2(c1ccc(O)cc1)c1ccc(O)cc1 | > 100 | –
56 | CCN(Cc1ccc(F)cc1)c1cc(Cl)c(CO)c(Cl)c1 | 32.6 | 13
57 | COc1ccc(/C=N/NC(=O)c2cccc3cc[nH]c23)cc1O | > 22.7 | 0.55
58 | N#Cc1c[nH]n2c(N=Nc3ccc(Cl)cc3)c(O)nc12 | > 100 | > 100
